# Patent publication US20070208087A1, “Compounds, compositions and methods for the treatment of inflammatory diseases” (priority 2001, published 2007)
# Several values for one entry are separate records, joined by “and”; a condition that tells them apart may be missing. Identical values can stand only once. Like-named read-outs stand apart in the source and are kept apart here.
# Columns and labels:
# Format in all cases: cell-based
# [1] = tested on: Microglial cells; experiment: Dose response inhibition of NO release from microglia, 0.5-500 μM (Example 9); conditions: for inhibition at 0.5 µM / inhibition at 1 µM / inhibition at 100 µM / inhibition at 250 µM / inhibition at 500 µM / μM NO release / μM NO release (No LPS average subtracted) / % inhibition: 48 hours; for μM NO release / μM NO release (No LPS average subtracted): 3 replicates
# Description: This experiment was designed to determine the dose response inhibition of NO release from microglia by bis- and tris-dihydroxyaryl compounds when stimulated with LPS/IFNγ. Earlier experiments have demonostrated that some bis- and tris-dihydroxyaryl compounds are good inhibitors of NO release from microglia. This experiment is designed to determine a dose response for various effective bis- and tris-dihydroxyaryl compounds. Microglial cells were plated into 96 well plates at 1×10^5 cells/ml. At 48 hours, media was exchanged for media containing 10 ng/ml IFNγ and 10 μg/ml LPS and the following compounds 3, 4, 21, 26 and the positive control L-NAME. The doses tested were: 0.5 μM, 1.0 μM, 5.0 μM, 10 μM, 25 μM, 50 μM, 100 μM, 250 μM, and 500 μM. Nitric oxide release was measured after 48 hours using the Griess reaction.
# [2] = tested on: EOC 13.31 microglia cells; experiment: Inhibition of NO release from microglia following 24 hours pretreatment (Example 10); conditions: for inhibition at 50 µM: Microglia
# Outline: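 Confluent EOC 13.31 cells pretreated 24 hours with 50 μM compound (from 10 mM DMSO stock), then stimulated with 10 μg/ml LPS plus 10 ng/ml IFNγ without media change. After a further 48 hours, NO release was measured by Griess Reaction.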
# [3] = tested on: microglia; experiment: Ranking of NO release inhibition (Example 12); conditions: Microglia, ranking table
# From the text: The bis- and tris-dihydroxyaryl compounds were ranked in order of effectiveness for the inhibition of NO release as set out in Table 8.
smiles,measurement,setting,value
"Oc1ccc(CNCc2ccc(O)c(O)c2)cc1O [Compound 73, bis(3,4-dihydroxybenzyl)amine]",inhibition at 0.5 µM,"[1]; Microglia, 48 h, dose 0.5 μM, NO release, LPS/IFNγ, read-out: Avg % Inhibition",12.7%
same,inhibition at 0.5 µM,"[1]; Microglia, 48 h, dose 0.5 μM, individual replicates, NO release, LPS/IFNγ, read-out: % inhibition",15.5%
same,inhibition at 1 µM,"[1]; Microglia, 48 h, dose 1 μM, NO release, LPS/IFNγ, read-out: Avg % Inhibition",16.5%
same,inhibition at 1 µM,"[1]; Microglia, 48 h, dose 1 μM, individual replicates, NO release, LPS/IFNγ, read-out: % inhibition",17.7%
same,inhibition at 5 µM,"[1]; Microglia, 48 h, dose 5 μM, NO release, LPS/IFNγ",1.5%
same,inhibition at 10 µM,"[1]; Microglia, 48 h, dose 10 μM, NO release, LPS/IFNγ",1.75%
same,inhibition at 25 µM,"[1]; Microglia, 48 h, dose 25 μM, NO release, LPS/IFNγ",0.75%
same,inhibition at 50 µM,"[1]; Microglia, 48 h, dose 50 μM, NO release, LPS/IFNγ",0.25%
same,inhibition at 100 µM,"[1]; Microglia, 48 h, dose 100 μM, NO release, LPS/IFNγ, read-out: Avg % Inhibition",33%
same,inhibition at 100 µM,"[1]; Microglia, 48 h, dose 100 μM, individual replicates, NO release, LPS/IFNγ, read-out: % inhibition",31.2%
same,inhibition at 250 µM,"[1]; Microglia, 48 h, dose 250 μM, NO release, LPS/IFNγ, read-out: Avg % Inhibition",45.3%
same,inhibition at 250 µM,"[1]; Microglia, 48 h, dose 250 μM, individual replicates, NO release, LPS/IFNγ, read-out: % inhibition",46.7%
same,inhibition at 500 µM,"[1]; Microglia, 48 h, dose 500 μM, NO release, LPS/IFNγ, read-out: Avg % Inhibition",72.3%
same,inhibition at 500 µM,"[1]; Microglia, 48 h, dose 500 μM, individual replicates, NO release, LPS/IFNγ, read-out: % inhibition",72.6%
same,inhibition at 500 µM,"[1]; Microglia, 48 h, highest concentration tested (500 μM), read-out: inhibited NO release by",72%
same,μM NO release,"[1]; dose 0.5 μM, LPS/IFNγ",17.361 µM and 18.194 µM and 18.056 µM
same,μM NO release (No LPS average subtracted),"[1]; dose 0.5 μM, LPS/IFNγ",15.66 µM and 16.49 µM and 16.36 µM
same,% inhibition,"[1]; dose 0.5 μM, individual replicates, NO release, LPS/IFNγ",10.99% and 11.74%
same,μM NO release,"[1]; dose 1 μM, LPS/IFNγ",16.944 µM and 16.806 µM and 17.778 µM
same,μM NO release (No LPS average subtracted),"[1]; dose 1 μM, LPS/IFNγ",15.25 µM and 15.11 µM and 16.08 µM
same,% inhibition,"[1]; dose 1 μM, individual replicates, NO release, LPS/IFNγ",18.49% and 13.25%
same,μM NO release,"[1]; dose 5 μM, LPS/IFNγ",20.000 µM and 19.583 µM and 20.278 µM
same,μM NO release (No LPS average subtracted),"[1]; dose 5 μM, LPS/IFNγ",18.30 µM and 17.88 µM and 18.58 µM
same,% inhibition,"[1]; dose 5 μM, individual replicates, NO release, LPS/IFNγ",1.25% and 3.50% and −0.25%
same,μM NO release,"[1]; dose 10 μM, LPS/IFNγ",18.889 μM and 20.417 μM (2×)
same,μM NO release (No LPS average subtracted),"[1]; dose 10 μM, LPS/IFNγ",17.19 μM and 18.72 μM (2×)
same,% inhibition,"[1]; dose 10 μM, individual replicates, NO release, LPS/IFNγ",7.24% and −1.00% (2×)
same,μM NO release,"[1]; dose 25 μM, LPS/IFNγ",19.167 µM and 20.139 µM and 20.972 µM
same,μM NO release (No LPS average subtracted),"[1]; dose 25 μM, LPS/IFNγ",17.47 µM and 18.44 µM and 19.27 µM
same,% inhibition,"[1]; dose 25 μM, individual replicates, NO release, LPS/IFNγ",5.75% and 0.50% and −4.00%
same,μM NO release,"[1]; dose 50 μM, LPS/IFNγ",19.444 µM and 19.861 µM and 21.250 µM
same,μM NO release (No LPS average subtracted),"[1]; dose 50 μM, LPS/IFNγ",17.74 µM and 18.16 µM and 19.55 µM
same,% inhibition,"[1]; dose 50 μM, individual replicates, NO release, LPS/IFNγ",4.25% and 2.00% and −5.50%
same,μM NO release,"[1]; dose 100 μM, LPS/IFNγ",14.444 µM and 13.056 µM and 14.861 µM
same,μM NO release (No LPS average subtracted),"[1]; dose 100 μM, LPS/IFNγ",12.74 µM and 11.36 µM and 13.16 µM
same,% inhibition,"[1]; dose 100 μM, individual replicates, NO release, LPS/IFNγ",38.72% and 28.98%
same,μM NO release,"[1]; dose 250 μM, LPS/IFNγ",11.569 µM and 10.904 µM and 13.056 µM
same,μM NO release (No LPS average subtracted),"[1]; dose 250 μM, LPS/IFNγ",9.87 µM and 9.20 µM and 11.36 µM
same,% inhibition,"[1]; dose 250 μM, individual replicates, NO release, LPS/IFNγ",50.33% and 38.72%
same,μM NO release,"[1]; dose 500 μM, LPS/IFNγ",6.782 µM and 6.516 µM and 7.181 µM
same,μM NO release (No LPS average subtracted),"[1]; dose 500 μM, LPS/IFNγ",5.08 µM and 4.82 µM and 5.48 µM
same,% inhibition,"[1]; dose 500 μM, individual replicates, NO release, LPS/IFNγ",74.01% and 70.42%
same,μM NO release,"[2]; 50 uM pretreatment 24 hours, then LPS/IFNγ 48 hours, single replicates",0.000 µM
same,inhibition at 50 µM,"[2]; 50 uM pretreatment 24 hours, then LPS/IFNγ 48 hours, read-out: Avg % Inhibition",100%
same,inhibition at 50 µM,"[2]; 50 uM pretreatment 24 hours, then LPS/IFNγ 48 hours, single replicates, read-out: % inhibition",100%
same,inhibition at 50 µM,"[2]; 50 μM pretreatment, read-out: inhibition of NO release following pretreatment",> 75%
same,inhibition at 50 µM,[3],2%
